Values quoted from earlier work, collected in patent US20140308726A1, “Controlling Bacterial Biofilms in Ethanol Production” (ANITOX CORPORATION, priority 2011, published 2014).
Like-named read-outs stand apart in the source and are kept apart here.

What was measured:
Lactobacillus [1] = conditions: 600 mg/L
yeast = conditions: 8 g/L; beet molasses batch fermentation
Lactobacillus [2] = conditions: 8.6 ppm Nisin combined with 0.1% Tween 20

For `O=C(O)CCC(=O)O` [Succinic acid], the “Reduction of Lactobacillus concentrations” value (Lactobacillus [1]; by itself) is listed as 78% and the “Reduction of Lactobacillus concentrations” value (Lactobacillus [1]; in the presence of ethanol) is listed as “up to 96%”.
In the case of `CC(O)C(=O)O` (centres unmarked) [lactic acid], the “Reduction of alcohol production rate” value (yeast) is listed as 80% and the “Reduction of yeast viability” value (yeast) is listed as 95%.
For Nisin, the “Delay of the lag phase of lactobacillus” value (Lactobacillus [2]) is given as 12 h.
